# According to patent US20050171353A1, “Piperidine or 8-aza-bicyclo[3.2.1]oct-3-yl derivatives useful as modulators of chemokine receptor activity (especially ccr5)” (priority 2002, published 2005):
# Biological target: recombinant human CCR5 receptor (Homo sapiens, UniProt P51681)
# Assay: in vitro radioligand binding assay (inhibition of binding of RANTES or MIP-1α), scintillation proximity
# Conditions: membranes from Chinese hamster ovary cells expressing recombinant human CCR5; 0.1 nM iodinated RANTES or MIP-1α; average if tested more than once
# Protocol: The ability of compounds to inhibit the binding of RANTES or MIP-1α was assessed by an in vitro radioligand binding assay. Membranes were prepared from Chinese hamster ovary cells which expressed the recombinant human CCR5 receptor. These membranes were incubated with 0.1 nM iodinated RANTES or MIP-1α, scintillation proximity beads and various concentrations of the compounds of the invention in 96-well plates. The amount of iodinated RANTES or MIP-1α bound to the receptor was determined by scintillation counting.
# In Table IV the results are presented as Pic50 values.
# Chain of recombinant human CCR5 receptor (P51681 whole entry): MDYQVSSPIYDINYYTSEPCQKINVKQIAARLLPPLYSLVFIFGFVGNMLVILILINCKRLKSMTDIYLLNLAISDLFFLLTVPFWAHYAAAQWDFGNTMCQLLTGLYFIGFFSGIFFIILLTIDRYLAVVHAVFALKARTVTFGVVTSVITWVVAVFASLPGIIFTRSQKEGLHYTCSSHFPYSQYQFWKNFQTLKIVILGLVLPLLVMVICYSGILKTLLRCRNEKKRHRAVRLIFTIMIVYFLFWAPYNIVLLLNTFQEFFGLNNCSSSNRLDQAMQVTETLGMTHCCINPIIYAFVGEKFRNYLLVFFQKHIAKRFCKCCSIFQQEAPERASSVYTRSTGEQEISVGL
Compound,Pic50,IC50 [nM]
"CCN(C(=O)Cc1ccc(S(C)(=O)=O)cc1)C1CCN(CC[C@H](NC(=O)C2CCC(F)(F)CC2)c2ccccc2)CC1 [Table 1 Compound 1, (S)—N-[1-(3-phenyl-3-[4,4-difluorocyclohexylcarboxyamino]propyl)-4-piperidinyl]-N-ethyl-4-methanesulfonylphenylacetamide]",8.95,
"CCN(C(=O)Cc1ccc(S(C)(=O)=O)cc1)C1CCN(CC[C@H](NC(=O)N2CCC(F)CC2)c2ccccc2)CC1 [Table 1 Compound 2, (S)—N-[1-(3-phenyl-3-[4-fluoropiperidin-1-ylcarboxyamino]propyl)-4-piperidinyl]-N-ethyl-4-methanesulfonylphenylacetamide]",7.68,
"CCN(C(=O)Cc1ccc(S(C)(=O)=O)cc1)C1CCN(CC[C@H](NC(=O)N2CC[C@@H](F)C2)c2ccccc2)CC1 [Table 1 Compound 3, (S)—N-[1-(3-Phenyl-3-[(R)-3-fluoropyrrolidin-1-ylcarboxyamino]propyl)-4-piperidinyl]-N-ethyl4-methanesulfonylphenylacetamide]",7.76,
"CCN(C(=O)Cc1ccc(S(C)(=O)=O)cc1)[C@@H]1C[C@H]2CC[C@@H](C1)N2CC[C@H](NC(=O)C1CCC(F)(F)CC1)c1ccccc1 [Table 2 Compound 1, (S)-4,4-difluoro-cyclohexanecarboxylic acid[3-(3-{ethyl-[2-(4-methanesulfonyl-phenyl)-acetyl]-amino}-8-aza-bicyclo[3.2.1]oct-8-yl-exo)-1-phenyl-propyl]-amide]",,3.31
"(S)—N-[1-(3-[3,5-Difluorophenyl]-3-[3,3-difluorocyclobutylcarboxyamino]propyl)-4-piperidinyl]-N-ethyl-4-methanesulfonylphenylacetamide hydrochloride [Table 1 Compound 6]",8.65,
"N-[1-((4S)-4-Phenyl-4-[3,3-difluorocyclobutylcarboxyamino]but-2-yl)-4-piperidinyl]-N-ethyl-4-methanesulfonylphenylacetamide hydrochloride [Table 3 Compound 8]",9.15,
